# Laboratory results published in PubChem BioAssay (NCI).
# “And” between values parts separate entries of the source, which are not always exact repeats. Equal entries are not always repeated.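 In this assay, cells in 96-well plates receive the compound at five concentrations for 48 hours. Endpoints are linearly interpolated between the surrounding concentrations. TGI: concentration producing complete growth inhibition.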
# How the values were obtained:
# Assay in all cases: DTP human tumour cell line panel, 48 h
# A498 renal = tested on: A498 renal
# BT-549 breast = tested on: BT-549 breast
# CAKI-1 renal = tested on: CAKI-1 renal
# COLO 205 colon = tested on: COLO 205 colon
# HCC-2998 colon = tested on: HCC-2998 colon
# NCI-H23 lung = tested on: NCI-H23 lung
# SK-MEL-28 melanoma = tested on: SK-MEL-28 melanoma
# SR leukemia = tested on: SR leukemia
# U251 CNS = tested on: U251 CNS
# UO-31 renal = tested on: UO-31 renal
Compound,TGI (A498 renal),TGI (BT-549 breast),TGI (CAKI-1 renal),TGI (COLO 205 colon),TGI (HCC-2998 colon),TGI (NCI-H23 lung),TGI (SK-MEL-28 melanoma),TGI (SR leukemia),TGI (U251 CNS),TGI (UO-31 renal)
CN(CCCNC(=O)c1c2ccc3ccccc3c2nn1C)CCCNC(=O)c1c2ccc3ccccc3c2nn1C,15.7 µM,24 µM,15.3 µM,3.54 µM,3.44 µM,29.4 µM,4.6 µM,13 µM,22.1 µM,19.9 µM
O=S(=O)(/N=C(\NO)Nc1ccc(Cl)cc1)c1cc(S(=O)(=O)c2ccccc2)cs1,28.4 µM,45.7 µM,46.7 µM,34.2 µM,27.6 µM,41.9 µM,41.2 µM,95.7 µM,30.6 µM,27.6 µM
C=C(Cl)C(Cl)(CBr)CCC(Br)C(C)(C)Cl (stereo not given),4.03 µM and 4.02 µM and 6.05 µM,7.21 µM and 15.7 µM and 9.1 µM,2.36 µM and 1.99 µM and 2.1 µM,4.02 µM and 7.41 µM and 31.6 µM,6.35 µM and 2.97 µM and 8.14 µM,40.7 µM and 33.8 µM and > 70.2 µM,8.93 µM and 3.51 µM and 24.1 µM,61.2 µM and 26.5 µM and 33.9 µM,2.08 µM and 0.925 µM and 2.71 µM,3.71 µM and 3.73 µM and 11.3 µM
COc1cccc(Nc2nc(NS(=O)(=O)c3cc(C)c(Cl)cc3S)n[nH]2)c1,> 100 µM,> 100 µM,> 100 µM,> 100 µM,> 100 µM,> 100 µM,> 100 µM,> 100 µM,> 100 µM,> 100 µM
O=C(O)c1ccccc1CC(Cc1ccccc1)C(=O)O (stereo not given),> 100 µM,> 100 µM,> 100 µM,> 100 µM,> 100 µM,> 100 µM,> 100 µM,> 100 µM,> 100 µM,> 100 µM
Cn1c(SCc2c[nH]c3ccccc23)nnc1-c1ccc(Cl)cc1Cl,86.3 µM,87.5 µM,> 100 µM,27.4 µM,26.1 µM,69.9 µM,> 100 µM,16.6 µM,38.1 µM,82.9 µM
N#Cc1c(N)nc2n[nH]c(N)c2c1-c1ccccc1,5.77 µM,40.2 µM,19.4 µM,24.3 µM,> 57 µM,50.2 µM,77.2 µM,> 60.1 µM,92.2 µM,32.3 µM
COC(=O)[C@]1(C)[C@H]2C[C@H]3O[C@H]4[C@H](O)[C@@H](O)OC(CC(O)C(C5=CC(=O)OC5)C(C5=CC(=O)OC5)C(O)CC56CCCCC7[C@@H](C)[C@H](C[C@H]8[C@](C)(C(=O)OC)[C@H](O)CC[C@]78C)O[C@H]([C@@H](O)[C@H](O)O5)[C@H]6O)(CCCCC([C@@H]3C)[C@]2(C)CC[C@@H]1O)[C@H]4O (stereo not given in full),0.737 µM,0.305 µM,0.849 µM,1.33 µM,2.94 µM,0.318 µM,10.4 µM,0.253 µM,1.09 µM,0.442 µM
O=C1CC(=O)NC(=NN2C(=O)/C(=C/c3ccc(Cl)cc3)N=C2c2ccccc2)N1,31.7 µM,30.1 µM,> 100 µM,31.5 µM,24.2 µM,31.5 µM,33.6 µM,21.3 µM,33 µM,31.7 µM
CCOc1cc2c(cc1O)CC[C@@H]1[C@@H]2CC[C@]2(C)[C@@H](O)CC[C@@H]12,20 µM,18.3 µM,52.9 µM,33.5 µM,5.51 µM,24.9 µM,77.5 µM,1.02 µM,19.3 µM,63.1 µM
CC1(CCCCO)C=CC(S(=O)(=O)c2ccccc2)CC1 (stereo not given),21.7 µM,27.5 µM,23.9 µM,14.4 µM,19.6 µM,17.8 µM,28.5 µM,6.71 µM,21.5 µM,16.3 µM
CCCCCC(/C=C/[C@@H]1[C@@H](C(O)CCCCCC(=O)OC)C(=O)C[C@H]1O[Si](C)(C)C(C)(C)C)OCOCCOC (stereo not given in full),42.7 µM,24.8 µM,32.2 µM,49.6 µM,> 57 µM,32.3 µM,33.3 µM,> 31.6 µM,27.4 µM,28.9 µM
Cc1ccc(C=C(C(=O)O)C(=O)O)o1,> 100 µM,> 100 µM,> 100 µM,> 100 µM,> 100 µM,> 100 µM,> 100 µM,> 100 µM,> 100 µM,> 100 µM
COCCOCCOCCC(=O)NC1CC2CCC1(C)C2(C)C (stereo not given),> 100 µM,> 100 µM,> 100 µM,> 100 µM,> 100 µM,> 100 µM,> 100 µM,> 100 µM,> 100 µM,> 100 µM
Cc1cc(/N=C/c2ccc(Cl)cc2)n(-c2ccccc2)n1,79.7 µM,> 100 µM,> 100 µM,> 100 µM,71 µM,> 100 µM,> 100 µM,> 100 µM,> 100 µM,> 100 µM
CCCCC1Cc2cc(OC)ccc2-c2n1c1cc(OC)ccc1[n+]2C (stereo not given) (tested in a mixture with another compound),83.2 µM,79 µM,> 100 µM,1.69 µM,8.51 µM,> 39.9 µM,25.8 µM,12.1 µM,> 26.5 µM,30.9 µM
CCCCOCCOCCOC1=C(Cl)C(=O)c2c(O)ccc(O)c2C1=O,4.95 µM,2.72 µM,0.388 µM,0.756 µM,4.79 µM,2.92 µM,1.41 µM,0.117 µM,6.72 µM,2.68 µM
